Target: Mitogen-activated protein kinase 14 (Homo sapiens, UniProt Q16539)
Experiment: In Vitro Kinase Assay
Conditions: pH 7.4; 30 °C
Protocol: Inhibition of human recombinant active p38alpha MAP kinase was tested by measuring the incorporation of 33P from gamma-[33P] ATP into myelin basic protein (MBP). The assay was performed in a 96-well microtiter plate. The incorporated radioactivity was measured in a Packard Topcount microplate scintillation counter. The 50% inhibitory value was calculated by fitting the data to the equation: fractional activity = 1/[I]/IC50 + 1.

Sequence of Mitogen-activated protein kinase 14 (Q16539 whole entry): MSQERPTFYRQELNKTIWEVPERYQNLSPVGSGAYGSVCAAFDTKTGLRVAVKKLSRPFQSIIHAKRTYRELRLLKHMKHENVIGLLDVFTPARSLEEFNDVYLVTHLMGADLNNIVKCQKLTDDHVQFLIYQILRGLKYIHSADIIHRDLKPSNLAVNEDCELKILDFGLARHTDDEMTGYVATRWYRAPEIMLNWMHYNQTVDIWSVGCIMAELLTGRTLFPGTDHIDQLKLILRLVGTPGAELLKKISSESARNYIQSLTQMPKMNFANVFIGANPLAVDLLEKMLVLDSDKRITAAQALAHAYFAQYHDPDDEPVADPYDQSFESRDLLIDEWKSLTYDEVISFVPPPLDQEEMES

## CC(CO)Nc1cc(-c2[nH]c3cccnc3c2-c2ccc(F)cc2)ccn1 (stereo unspecified) [2-({4-[3-(4-fluorophenyl)-1H-pyrrolo[3,2-b]pyridin-2-yl]pyridin-2-yl}amino)propan-1-ol]
  IC50: 3 nM
